Assay results as given in PubChem BioAssay (NCI).
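Following 48 hours of exposure in 96-well plates, responses at five concentrations were used to interpolate endpoints linearly. Here, GI50 denotes the concentration required for 50% inhibition of growth. TGI marks complete inhibition of growth.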

What was measured:
Assay in all cases: inhibition of tumour cell growth, NCI panel, 48 h
[1] = system: CAKI-1 renal
[2] = system: SF-295 CNS
[3] = system: SK-MEL-2 melanoma
[4] = system: SK-OV-3 ovarian
[5] = system: NCI-H23 lung
[6] = system: HCT-15 colon
[7] = system: SF-268 CNS
[8] = system: MDA-MB-231 breast
[9] = system: UACC-257 melanoma
[10] = system: NCI-H460 lung
[11] = system: K-562 leukemia
[12] = system: 786-0 renal
[13] = system: M14 melanoma
[14] = system: IGROV1 ovarian
[15] = system: MDA-MB-435
[16] = system: UACC-62 melanoma
[17] = system: SR leukemia
[18] = system: OVCAR-5 ovarian
[19] = system: TK-10 renal
[20] = system: KM12 colon
[21] = system: BT-549 breast
[22] = system: DU-145 prostate
[23] = system: MCF7 breast
[24] = system: SK-MEL-5 melanoma
[25] = system: SK-MEL-28 melanoma
[26] = system: COLO 205 colon
[27] = system: LOX IMVI melanoma
[28] = system: CCRF-CEM leukemia
[29] = system: RPMI-8226 leukemia
[30] = system: A498 renal
[31] = system: HCT-116 colon
[32] = system: A549 NSCLC
[33] = system: MOLT-4 leukemia
[34] = system: UO-31 renal
[35] = system: PC-3 prostate
[36] = system: HOP-92 NSCLC
[37] = system: NCI-H226 lung
[38] = system: RXF 393 renal
[39] = system: U251 CNS
[40] = system: NCI/ADR-RES ovarian
[41] = system: T-47D breast
[42] = system: HT29 colon
[43] = system: HS 578T breast
[44] = system: NCI-H522 lung
[45] = system: SN12C renal
[46] = system: HCC-2998 colon
[47] = system: OVCAR-3 ovarian
[48] = system: ACHN renal
[49] = system: SF-539 CNS
[50] = system: SW-620 colon
[51] = system: MALME-3M melanoma
[52] = system: SNB-19 CNS
[53] = system: SNB-75 CNS
[54] = system: EKVX NSCLC
[55] = system: HOP-62 NSCLC
[56] = system: HL-60(TB) leukemia
[57] = system: OVCAR-8 ovarian
[58] = system: OVCAR-4 ovarian

COc1ccc(S(=O)(=O)NC2=NCCN2C(=S)SN2CCn3c2nsc3=S)cc1OC
GI50 [1]: 16.5 µM | TGI [1]: 61.8 µM | GI50 [2]: 20.9 µM | TGI [2]: 56.2 µM | GI50 [3]: 24.1 µM | TGI [3]: 75.1 µM | GI50 [4]: 21.9 µM | TGI [4]: 55.2 µM | GI50 [5]: 22.4 µM | TGI [5]: 53 µM | GI50 [6]: 26.2 µM | TGI [6]: > 100 µM | GI50 [7]: 23.2 µM | TGI [7]: 79.2 µM | GI50 [8]: 26.3 µM | TGI [8]: > 100 µM | GI50 [9]: 25.1 µM | TGI [9]: 82.9 µM | GI50 [10]: 28.1 µM | TGI [10]: > 100 µM | GI50 [11]: 27.4 µM | TGI [11]: > 100 µM | GI50 [12]: 25.5 µM | TGI [12]: 63.9 µM | GI50 [13]: 20.4 µM | TGI [13]: 48.8 µM | GI50 [14]: 23.2 µM | TGI [14]: > 100 µM | GI50 [15]: 19.8 µM | TGI [15]: 44.1 µM | GI50 [16]: 16.3 µM | TGI [16]: 38 µM | GI50 [17]: 22.6 µM | TGI [17]: > 100 µM | GI50 [18]: 20.8 µM | TGI [18]: 40.4 µM | GI50 [19]: 22.2 µM | TGI [19]: 73.8 µM | GI50 [20]: 21.2 µM | TGI [20]: 52 µM | GI50 [21]: 30.9 µM | TGI [21]: > 100 µM | GI50 [22]: 41 µM | TGI [22]: > 100 µM | GI50 [23]: 15.7 µM | TGI [23]: 35.7 µM | GI50 [24]: 25.3 µM | TGI [24]: 74.1 µM | GI50 [25]: 16.5 µM | TGI [25]: 37.5 µM | GI50 [26]: 12.5 µM | TGI [26]: 29 µM | GI50 [27]: 16.8 µM | TGI [27]: 37.8 µM | GI50 [28]: 11.3 µM | TGI [28]: 30.9 µM | GI50 [29]: 7.93 µM | TGI [29]: 27.5 µM | GI50 [30]: 37.3 µM | TGI [30]: > 100 µM | GI50 [31]: 19.2 µM | TGI [31]: 40 µM | GI50 [32]: 27.9 µM | TGI [32]: > 100 µM | GI50 [33]: 27.1 µM | TGI [33]: > 100 µM | GI50 [34]: 35.8 µM | TGI [34]: > 100 µM | GI50 [35]: 27.1 µM | TGI [35]: 94 µM | GI50 [36]: 23.2 µM | TGI [36]: 48.6 µM | GI50 [37]: 26.5 µM | TGI [37]: 81.5 µM | GI50 [38]: 3.1 µM | TGI [38]: 13 µM | GI50 [39]: 22.3 µM | TGI [39]: 53.4 µM | GI50 [40]: 61.8 µM | TGI [40]: > 100 µM | GI50 [41]: 15.3 µM | TGI [41]: 35.3 µM | GI50 [42]: 25.7 µM | TGI [42]: 94.4 µM | GI50 [43]: 28.4 µM | TGI [43]: > 100 µM | GI50 [44]: 13 µM | TGI [44]: 38.8 µM | GI50 [45]: 22.6 µM | TGI [45]: 54.9 µM | GI50 [46]: 24.7 µM | TGI [46]: 44.1 µM | GI50 [47]: 21 µM | TGI [47]: 47 µM | GI50 [48]: 28.9 µM | TGI [48]: > 100 µM | GI50 [49]: 34.3 µM | TGI [49]: > 100 µM | GI50 [50]: 18.9 µM | TGI [50]: > 100 µM | GI50 [51]: 16.7 µM | TGI [51]: 43.7 µM | GI50 [52]: 26.6 µM | TGI [52]: > 100 µM | GI50 [53]: 12.7 µM | TGI [53]: 46.4 µM | GI50 [54]: 50.1 µM | TGI [54]: > 100 µM | GI50 [55]: 27.5 µM | TGI [55]: 78.3 µM | GI50 [56]: > 100 µM | TGI [56]: > 100 µM | GI50 [57]: 29.5 µM | TGI [57]: > 100 µM | GI50 [58]: 16 µM | TGI [58]: 34.8 µM
